According to patent US7659263B2, “Thienopyrrole compound and use thereof as HCV polymerase inhibitor” (Japan Tobacco Inc., priority 2004, dated 2010):
Structures can show the parent of a compound that is named as a salt.

Experiments:
NS5B 1a = molecular target: T1, NS5B 1a (Hepatitis C virus genotype 1a, UniProt P27958); experiment: Assay of enzyme (HCV polymerase) inhibitory activity, NS5B 1a; format: biochemical; details: HCV polymerase NS5B 1a; [3H]UTP incorporation, 25° C., 90 min
T1 construct: NS5B 1a

NS5B 1b = molecular target: T2, NS5B 1b (Hepatitis C virus genotype 1b, UniProt P26663); experiment: Assay of enzyme (HCV polymerase) inhibitory activity, NS5B 1b; format: biochemical
T2 construct: a region encoding NS5B (J Virol 1991 March, 65(3), 1105-13, 544 amino acids after deletion of 47 amino acids on the C-terminal); 6 His (C); made in house; host or cells: Escherichia coli
Text: The evaluation of the HCV polymerase inhibitory activity of the compound of the present invention is explained in the following. This polymerase is an enzyme coded for by the non-structural protein region called NS5B on the genome RNA of HCV (EMBO J., 15:12-22, 1996).
i) Preparation of enzyme (HCV polymerase)
Using, as a template, a cDNA clone corresponding to the full length genome RNA of HCV BK strain obtained from the blood of a patient with hepatitis C, a region encoding NS5B (J Virol 1991 March, 65(3), 1105-13, 544 amino acids after deletion of 47 amino acids on the C-terminal) was amplified by PCR. The objective gene was prepared by adding a 6 His tag {base pair encoding 6 continuous histidine (His)} to the 3′ end thereof and transformed to Escherichia coli. The Escherichia coli capable of producing the objective protein was cultured. The obtained cells were suspended in a buffer solution and crushed in a microfluidizer. The supernatant was obtained by centrifugation and applied to various column chromatographys {mono-S, Sephacryl S-200 (Pharmacia)}, inclusive of metal chelate chromatography, to give a standard enzyme product.
ii) Synthesis of Substrate RNA
Using a synthetic primer designed based on the sequence of HCV genomic 3′ untranslated region, a DNA fragment (148 bp) containing polyU and 3′X sequence was entirely synthesized and cloned into plasmid pBluescript SK II(+) (Stratagene). The cDNA encoding full length NS5B, which was prepared in i) above, was digested with restriction enzyme KpnI to give a cDNA fragment containing the nucleotide sequence of from the restriction enzyme cleavage site to the termination codon. This cDNA fragment was inserted into the upstream of 3′ untranslated region of the DNA in pBluescript SK II(+) and ligated. The about 450 bp inserted DNA sequence was used as a template in the preparation of substrate RNA. This plasmid was cleaved immediately after the 3′X sequence, linearized and purified by phenol-chloroform treatment and ethanol precipitation to give DNA.
RNA was synthesized (37° C., 3 hr) by run-off method using this purified DNA as a template, a promoter of pBluescript SK II(+), MEGAscript RNA synthesis kit (Ambion) and T7 RNA polymerase. DNase I was added and the mixture was incubated for 1 hr. The template DNA was removed by decomposition to give a crude RNA product. This crude product was treated with phenol-chloroform and purified by ethanol precipitation to give the objective substrate RNA.
This RNA was applied to formaldehyde denaturation agarose gel electrophoresis to confirm the quality thereof and preserved at −80° C. iii) Assay of enzyme (HCV polymerase) inhibitory activity A test substance (compound of the present invention) and a reaction mixture (30 μl) having the following composition were reacted at 25° C. for 90 min.
10% Trichloroacetic acid at 4° C. and 1% sodium pyrophosphate solution (150 μl) were added to this reaction mixture to stop the reaction. The reaction mixture was left standing in ice for 15 min to insolubilize RNA. This RNA was trapped on a glass filter (Whatman GF/C and the like) upon filtration by suction. This filter was washed with a solution containing 1% trichloroacetic acid and 0.1% sodium pyrophosphate, washed with 90% ethanol and dried. A liquid scintillation cocktail (Packard) was added and the radioactivity of RNA synthesized by the enzyme reaction was measured on a liquid scintillation counter.
The HCV polymerase inhibitory activity (IC50) of the compound of the present invention was calculated from the values of radioactivity of the enzyme reaction with and without the 20 test substance. […]

T2 sequence (P26663 2420-2963): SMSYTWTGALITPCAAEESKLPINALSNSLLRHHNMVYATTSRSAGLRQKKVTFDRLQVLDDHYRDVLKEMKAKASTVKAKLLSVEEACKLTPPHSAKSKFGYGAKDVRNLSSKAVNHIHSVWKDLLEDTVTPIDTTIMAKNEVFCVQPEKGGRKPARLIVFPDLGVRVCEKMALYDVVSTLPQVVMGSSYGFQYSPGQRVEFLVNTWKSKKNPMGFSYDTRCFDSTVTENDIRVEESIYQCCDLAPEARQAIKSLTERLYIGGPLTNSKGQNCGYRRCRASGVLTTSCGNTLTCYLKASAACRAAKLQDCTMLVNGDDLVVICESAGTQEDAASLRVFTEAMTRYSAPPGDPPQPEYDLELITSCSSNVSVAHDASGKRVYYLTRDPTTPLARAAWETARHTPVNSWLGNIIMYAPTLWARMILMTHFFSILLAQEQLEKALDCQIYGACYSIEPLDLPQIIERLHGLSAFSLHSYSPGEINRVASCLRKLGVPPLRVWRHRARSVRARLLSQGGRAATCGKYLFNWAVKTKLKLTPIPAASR
T1 sequence (P27958 2421-3011): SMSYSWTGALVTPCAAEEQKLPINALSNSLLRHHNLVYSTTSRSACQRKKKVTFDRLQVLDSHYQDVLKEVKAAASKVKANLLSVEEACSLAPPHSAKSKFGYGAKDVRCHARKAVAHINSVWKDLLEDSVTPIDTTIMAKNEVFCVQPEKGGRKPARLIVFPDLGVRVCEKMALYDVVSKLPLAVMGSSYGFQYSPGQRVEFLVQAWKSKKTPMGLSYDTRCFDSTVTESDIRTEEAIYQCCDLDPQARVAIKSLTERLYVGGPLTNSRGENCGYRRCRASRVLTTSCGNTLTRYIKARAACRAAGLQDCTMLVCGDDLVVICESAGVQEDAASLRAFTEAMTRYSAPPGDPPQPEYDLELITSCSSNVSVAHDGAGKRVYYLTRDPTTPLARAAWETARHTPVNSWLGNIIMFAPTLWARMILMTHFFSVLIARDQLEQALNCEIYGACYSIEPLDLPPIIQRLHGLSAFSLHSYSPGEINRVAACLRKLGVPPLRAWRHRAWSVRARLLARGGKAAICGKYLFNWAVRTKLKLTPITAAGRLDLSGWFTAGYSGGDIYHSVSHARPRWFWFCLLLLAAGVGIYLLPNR

Compound	IC50 (NS5B 1a)	IC50 (NS5B 1b)
CC1CCCN(CCN2CCn3c(c(C4CCCCC4)c4sc(C(=O)O)cc43)-c3ccc(Cl)cc32)C1 (stereo not shown) [Example 30, 8-chloro-11-cyclohexyl-6-[2-(3-methylpiperidin-1-yl)ethyl]-5,6-dihydro-4H-1-thia-3b,6-diazabenzo[e]cyclopenta[a]azulene-2-carboxylic acid dihydrochloride]	10 to 100 nM	< 10 nM
COCC[C@@H]1CCCN(CCN2CCn3c(c(C4CCCCC4)c4sc(C(=O)O)cc43)-c3ccc(Cl)cc32)C1 [Example 31, (S)-8-chloro-11-cyclohexyl-6-{2-[3-(2-methoxyethyl)piperidin-1-yl]ethyl}-5,6-dihydro-4H-1-thia-3b,6-diazabenzo[e]cyclopenta[a]azulene-2-carboxylic acid dihydrochloride]	10 to 100 nM	< 10 nM
O=C(O)c1cc2c(s1)c(C1CCCCC1)c1n2CCN(CCN2CCCOCC2)c2cc(Cl)ccc2-1 [Example 32, 8-chloro-11-cyclohexyl-6-[2-(1,4-oxazepan-4-yl)ethyl]-5,6-dihydro-4H-1-thia-3b,6-diazabenzo[e]cyclopenta[a]azulene-2-carboxylic acid dihydrochloride]	10 to 100 nM	< 10 nM
Cc1ccc2c(c1)N(CCN1CCN(C(=O)OC(C)(C)C)CC1)CCn1c-2c(C2CCCCC2)c2sc(C(=O)O)cc21 [Example 33, 6-[2-(4-tert-butoxycarbonylpiperazin-1-yl)ethyl]-11-cyclohexyl-8-methyl-5,6-dihydro-4H-1-thia-3b,6-diazabenzo[e]cyclopenta[a]azulene-2-carboxylic acid hydrochloride]	10 to 100 nM	10 to 100 nM
CC(C)(C)OC(=O)N1CCN(CCN2CCn3c(c(C4CCCCC4)c4sc(C(=O)O)cc43)-c3ccc(Cl)cc32)CC1 [Example 34, 6-[2-(4-tert-butoxycarbonylpiperazin-1-yl)ethyl]-8-chloro-11-cyclohexyl-5,6-dihydro-4H-1-thia-3b,6-diazabenzo[e]cyclopenta[a]azulene-2-carboxylic acid hydrochloride]	10 to 100 nM	10 to 100 nM
CCN1CCN(C(=O)CN2CCn3c(c(C4CCCCC4)c4sc(C(=O)O)cc43)-c3ccc(C)cc32)CC1 [Example 35, 11-cyclohexyl-6-[2-(4-ethylpiperazin-1-yl)-2-oxoethyl]-8-methyl-5,6-dihydro-4H-1-thia-3b,6-diazabenzo[e]cyclopenta[a]azulene-2-carboxylic acid dihydrochloride]	10 to 100 nM	10 to 100 nM
CCN1CCN(C(=O)CN2CCn3c(c(C4CCCCC4)c4sc(C(=O)O)cc43)-c3ccc(Cl)cc32)CC1 [Example 36, 8-chloro-11-cyclohexyl-6-[2-(4-ethylpiperazin-1-yl)-2-oxoethyl]-5,6-dihydro-4H-1-thia-3b,6-diazabenzo[e]cyclopenta[a]azulene-2-carboxylic acid dihydrochloride]	10 to 100 nM	10 to 100 nM
COc1ccc2c(c1)OCCn1c-2c(C2CCCCC2)c2sc(C(=O)NC3(C(=O)Nc4ccc(/C=C/C(=O)O)cc4)CCC3)cc21 [Example 37, (E)-3-[4-({1-[(11-cyclohexyl-8-methoxy-4,5-dihydro-6-oxa-1-thia-3b-azabenzo[e]cyclopenta[a]azulene-2-carbonyl)amino]cyclobutanecarbonyl}amino)phenyl]acrylic acid]	10 to 100 nM	10 to 100 nM
Cc1ccc2c(c1)N(C)CCn1c-2c(C2CCCCC2)c2sc(C(=O)NC3(C(=O)Nc4ccc(/C=C/C(=O)O)cc4)CCC3)cc21 [Example 38, (E)-3-[4-({1-[(11-cyclohexyl-6,8-dimethyl-5,6-dihydro-4H-1-thia-3b,6-diazabenzo[e]cyclopenta[a]azulene-2-carbonyl)amino]cyclobutanecarbonyl)amino)phenyl]acrylic acid]	10 to 100 nM	10 to 100 nM
CN1CCn2c(c(C3CCCCC3)c3sc(C(=O)NC4(C(=O)Nc5ccc(/C=C/C(=O)O)cc5)CCC4)cc32)-c2ccc(Cl)cc21 [Example 39, (E)-3-[4-({1-[(8-chloro-11-cyclohexyl-6-methyl-5,6-dihydro-4H-1-thia-3b,6-diazabenzo[e]cyclopenta[a]azulene-2-carbonyl)amino]cyclobutanecarbonyl}amino)phenyl]acrylic acid]	10 to 100 nM	10 to 100 nM
COc1ccc2c(c1)OCCn1c-2c(C2CCCCC2)c2sc(C(=O)NC3(C(=O)Nc4cccc(/C=C/C(=O)O)c4)CCC3)cc21 [Example 40, (E)-3-[3-({1-[(11-cyclohexyl-8-methoxy-4,5-dihydro-6-oxa-1-thia-3b-azabenzo[e]cyclopenta[a]azulene-2-carbonyl)amino]cyclobutanecarbonyl}amino)phenyl]acrylic acid]	10 to 100 nM	10 to 100 nM
CCOc1ccc2c(c1)OCCn1c-2c(C2CCCCC2)c2sc(C(=O)O)cc21 [Example 41, 11-cyclohexyl-8-ethoxy-4,5-dihydro-6-oxa-1-thia-3b-azabenzo[e]cyclopenta[a]azulene-2-carboxylic acid]	10 to 100 nM	10 to 100 nM
O=C(O)c1cc2c(s1)c(C1CCCCC1)c1n2CCOc2c-1cccc2N(CCN1CCCCC1)CCN1CCCCC1 [Example 42, 7-{bis[2-(piperidin-1-yl)ethyl]amino}-11-cyclohexyl-4,5-dihydro-6-oxa-1-thia-3b-azabenzo[e]cyclopenta[a]azulene-2-carboxylic acid trihydrochloride]	10 to 100 nM	< 10 nM
CCOc1ccc2c(c1)OCCn1c-2c(C2CCCCC2)c2sc(C(=O)NC3(C(=O)Nc4ccc(/C=C/C(=O)O)cc4)CCC3)cc21 [Example 43, (E)-3-[4-({1-[(11-cyclohexyl-8-ethoxy-4,5-dihydro-6-oxa-1-thia-3b-azabenzo[e]cyclopenta[a]azulene-2-carbonyl)amino]cyclobutanecarbonyl}amino)phenyl]acrylic acid]	10 to 100 nM	10 to 100 nM
CCOc1ccc2c(c1)N(C)CCn1c-2c(C2CCCCC2)c2sc(C(=O)O)cc21 [Example 44, 11-cyclohexyl-8-ethoxy-6-methyl-5,6-dihydro-4H-1-thia-3b,6-diazabenzo[e]cyclopenta[a]azulene-2-carboxylic acid]	10 to 100 nM	10 to 100 nM
CCOc1ccc2c(c1)N(C)CCn1c-2c(C2CCCCC2)c2sc(C(=O)NC3(C(=O)Nc4ccc(/C=C/C(=O)O)cc4)CCC3)cc21 [Example 45, (E)-3-[4-({1-[(11-cyclohexyl-8-ethoxy-6-methyl-5,6-dihydro-4H-1-thia-3b,6-diazabenzo[e]cyclopenta[a]azulene-2-carbonyl)amino]cyclobutanecarbonyl}amino)phenyl]acrylic acid]	10 to 100 nM	10 to 100 nM
O=C(O)c1cc2c(s1)c(C1CCCCC1)c1n2CCOc2c-1cccc2N(CCN1CCOCC1)CCN1CCOCC1 [Example 46, 7-{bis[2-(morpholin-4-yl)ethyl]amino}-1l-cyclohexyl-4,5-dihydro-6-oxa-1-thia-3b-azabenzo[e]cyclopenta[a]azulene-2-carboxylic acid trihydrochloride]	10 to 100 nM	< 10 nM
